Test results published in US11352340B2, “Pyridine and pyridimine compounds as PI3K-gamma inhibitors” (Incyte Corporation, priority 2016, dated 2022).
Where a name gives a salt, the structure may show the parent alone.

How the values were obtained:
[1] = target: PI3Kγ (p110γ) Recombinant Human Protein (Homo sapiens (Human), UniProt P48736); assay: PI3K-γ Scintillation Proximity Assay; type: biochemical; conditions: read-out: PI3K-gamma SPA IC50
Source text: Example B. PI3K-γ Scintillation Proximity Assay
(§1) [γ-^33P]ATP (10 mCi/mL) and Wheat Germ Agglutinin (WGA) YSi SPA Scintillation Beads was purchased from Perkin-Elmer (Waltham, Mass.). Lipid kinase substrate, D-myo-Phosphatidylinositol 4,5-bisphosphate (PtdIns(4,5)P2)D (+)-sn-1,2-di-O-octanoylglyceryl, 3-O-phospho linked (PIP2), CAS 204858-53-7, was purchased from Echelon Biosciences (Salt Lake City, Utah). PI3Kγ (p110γ) Recombinant Human Protein was purchased from Life technology (Grand Island, N.Y.). ATP, MgCl2, DTT, EDTA, MOPS and CHAPS were purchased from Sigma-Aldrich (St. Louis, Mo.).
(§2) The kinase reaction was conducted in polystyrene 384-well Greiner Bio-one white plate from Thermo Fisher Scientific in a final volume of 25 μL. Inhibitors were first diluted serially in DMSO and added to the plate wells before the addition of other reaction components. The final concentration of DMSO in the assay was 2%. The PI3Kγ assay was carried out at room temperature in 20 mM MOPS, pH 6.7, 10 mM MgCl2, 5 mM DTT and CHAPS 0.03%. Reactions were initiated by the addition of ATP, the final reaction mixture consisted of 20 μM PIP2, 2 μM ATP, 0.5 μCi [γ-^33P] ATP, 13 nM PI3Kγ. Reactions were incubated for 120 min and terminated by the addition of 40 μL SPA beads suspended in quench buffer: 163 mM potassium phosphate pH 7.8, 20% glycerol, 25 mM EDTA. The final concentration of SPA beads is 1.0 mg/mL. After the plate sealing, plates were shaken overnight at room temperature and centrifuged at 1500 rpm for 10 min, the radioactivity of the product was determined by scintillation counting on Topcount (Perkin-Elmer). IC50 determination was performed by fitting the curve of percent of the solvent control activity versus the log of the inhibitor concentration using the GraphPad Prism 6.0 software.

[2] = target: PI3Kδ (p110δ/p85α) Recombinant Human Protein (Homo sapiens (Human), UniProt O00329); assay: PI3Kδ Scintillation Proximity Assay; type: biochemical; conditions: read-out: PI3K-delta SPA IC50
Sequence of PI3Kδ (p110δ/p85α) Recombinant Human Protein (O00329 whole entry): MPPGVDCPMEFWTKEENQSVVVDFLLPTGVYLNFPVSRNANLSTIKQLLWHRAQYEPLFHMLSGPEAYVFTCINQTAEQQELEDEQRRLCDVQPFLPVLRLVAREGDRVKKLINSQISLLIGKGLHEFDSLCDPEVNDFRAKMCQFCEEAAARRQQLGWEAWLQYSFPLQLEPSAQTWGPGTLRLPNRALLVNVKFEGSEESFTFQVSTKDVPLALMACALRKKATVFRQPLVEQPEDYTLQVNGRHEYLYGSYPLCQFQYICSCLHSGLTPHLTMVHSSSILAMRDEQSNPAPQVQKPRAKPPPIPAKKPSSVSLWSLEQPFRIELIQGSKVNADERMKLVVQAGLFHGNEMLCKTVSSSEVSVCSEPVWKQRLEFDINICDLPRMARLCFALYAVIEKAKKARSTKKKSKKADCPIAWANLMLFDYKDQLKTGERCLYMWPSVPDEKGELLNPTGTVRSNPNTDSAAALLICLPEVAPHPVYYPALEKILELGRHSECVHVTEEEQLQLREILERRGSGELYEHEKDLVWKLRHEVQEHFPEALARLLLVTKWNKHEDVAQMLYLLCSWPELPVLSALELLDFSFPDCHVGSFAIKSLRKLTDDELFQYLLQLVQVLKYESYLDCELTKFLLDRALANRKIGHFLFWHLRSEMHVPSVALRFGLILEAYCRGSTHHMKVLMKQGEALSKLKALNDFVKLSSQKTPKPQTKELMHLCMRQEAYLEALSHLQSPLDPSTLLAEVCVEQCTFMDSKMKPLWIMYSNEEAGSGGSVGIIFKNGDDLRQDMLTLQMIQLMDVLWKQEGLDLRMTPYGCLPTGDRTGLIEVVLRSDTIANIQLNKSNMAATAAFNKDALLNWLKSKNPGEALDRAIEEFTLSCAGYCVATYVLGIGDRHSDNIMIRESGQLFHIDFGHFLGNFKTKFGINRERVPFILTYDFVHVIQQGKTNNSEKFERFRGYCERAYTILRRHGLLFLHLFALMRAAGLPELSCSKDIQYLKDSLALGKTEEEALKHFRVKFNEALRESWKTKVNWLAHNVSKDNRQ
Sequence of PI3Kδ (p110δ/p85α) Recombinant Human Protein (P27986 whole entry partner): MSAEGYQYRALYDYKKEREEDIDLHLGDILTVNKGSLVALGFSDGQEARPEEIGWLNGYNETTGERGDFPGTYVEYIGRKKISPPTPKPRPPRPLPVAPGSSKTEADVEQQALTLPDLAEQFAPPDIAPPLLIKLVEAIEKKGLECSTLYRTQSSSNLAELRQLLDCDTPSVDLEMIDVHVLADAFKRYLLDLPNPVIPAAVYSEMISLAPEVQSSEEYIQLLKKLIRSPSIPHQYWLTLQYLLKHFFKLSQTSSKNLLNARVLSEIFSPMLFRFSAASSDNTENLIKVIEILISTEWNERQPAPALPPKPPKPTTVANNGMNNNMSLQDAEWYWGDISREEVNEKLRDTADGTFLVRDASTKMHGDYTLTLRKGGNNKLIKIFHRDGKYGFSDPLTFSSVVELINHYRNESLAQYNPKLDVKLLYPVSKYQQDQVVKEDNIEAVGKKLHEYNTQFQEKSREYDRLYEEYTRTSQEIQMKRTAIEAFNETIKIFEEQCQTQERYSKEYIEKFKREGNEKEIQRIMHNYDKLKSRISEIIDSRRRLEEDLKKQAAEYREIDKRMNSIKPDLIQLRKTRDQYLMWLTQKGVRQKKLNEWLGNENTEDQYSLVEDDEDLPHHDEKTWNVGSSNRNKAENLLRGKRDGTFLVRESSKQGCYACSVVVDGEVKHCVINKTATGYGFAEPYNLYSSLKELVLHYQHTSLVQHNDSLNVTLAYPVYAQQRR
Source text: Example C. PI3Kδ Scintillation Proximity Assay
as §1, with “PI3Kδ (p110δ/p85α)” for “PI3Kγ (p110γ)”, “Eurofins (St Charles, Mo.).” for “Life technology (Grand Island, N.Y.).”
as §2, with “PI3Kδ” for “PI3Kγ”, “3.4” for “13”, “PI3Kδ.” for “PI3Kγ.”

Sequence of PI3Kγ (p110γ) Recombinant Human Protein (P48736 whole entry): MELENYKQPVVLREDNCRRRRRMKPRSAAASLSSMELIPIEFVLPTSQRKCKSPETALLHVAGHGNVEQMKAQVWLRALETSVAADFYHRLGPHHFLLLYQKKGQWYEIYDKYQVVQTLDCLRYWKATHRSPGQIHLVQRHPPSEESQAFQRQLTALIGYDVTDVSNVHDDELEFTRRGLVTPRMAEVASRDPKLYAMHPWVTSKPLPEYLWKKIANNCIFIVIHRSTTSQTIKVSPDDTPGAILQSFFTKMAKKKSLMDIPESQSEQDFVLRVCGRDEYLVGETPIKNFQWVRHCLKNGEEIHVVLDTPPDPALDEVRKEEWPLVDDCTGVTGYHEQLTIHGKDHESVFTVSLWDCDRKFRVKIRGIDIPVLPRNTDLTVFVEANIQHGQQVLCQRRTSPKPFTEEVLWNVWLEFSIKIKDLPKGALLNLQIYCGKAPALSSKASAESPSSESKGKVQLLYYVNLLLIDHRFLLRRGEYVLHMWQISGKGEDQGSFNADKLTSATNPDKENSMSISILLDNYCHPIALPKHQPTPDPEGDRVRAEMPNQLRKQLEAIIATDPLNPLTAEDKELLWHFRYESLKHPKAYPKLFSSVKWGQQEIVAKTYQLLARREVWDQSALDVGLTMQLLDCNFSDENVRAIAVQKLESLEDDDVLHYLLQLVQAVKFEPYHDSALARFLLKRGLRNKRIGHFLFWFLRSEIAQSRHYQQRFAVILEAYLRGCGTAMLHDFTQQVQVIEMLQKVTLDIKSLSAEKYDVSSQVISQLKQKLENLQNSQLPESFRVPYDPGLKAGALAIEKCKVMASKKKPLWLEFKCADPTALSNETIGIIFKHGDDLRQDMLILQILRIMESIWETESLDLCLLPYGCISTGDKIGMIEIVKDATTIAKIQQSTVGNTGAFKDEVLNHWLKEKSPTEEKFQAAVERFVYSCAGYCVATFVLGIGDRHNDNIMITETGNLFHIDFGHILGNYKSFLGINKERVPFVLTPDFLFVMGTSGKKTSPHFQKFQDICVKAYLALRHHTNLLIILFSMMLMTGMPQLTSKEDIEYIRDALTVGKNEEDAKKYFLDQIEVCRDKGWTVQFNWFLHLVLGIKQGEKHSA

`CNC(=O)CCn1cc(-c2ccnc(-c3ncc(-c4ccccc4)[nH]3)c2)cn1` [Example 58, N-Methyl-3-(4-(2-(5-phenyl-1H-imidazol-2-yl)pyridin-4-yl)-1H-pyrazol-1-yl)propanamide trifluoroacetate salt] gave an IC50 [1] of over 500 nM and an IC50 [2] of over 500 nM.

With `Cc1[nH]c(-c2cc(-c3cncc(N4CCOCC4)c3)ccn2)nc1CNC1CCOCC1` [Example 283, N-{[5-Methyl-2-(5-morpholin-4-yl-3,4′-bipyridin-2′-yl)-1H-imidazol-4-yl]methyl}tetrahydro-2H-pyran-4-amine] the IC50 [1] was over 500 nM and the IC50 [2] was at most 100 nM.

Work on `Cc1nc(-c2cc(-c3cncc(C(=O)N4CCC(c5ccncc5)C4)c3)ccn2)[nH]c1C` (racemic) [Example 182, 2′-(4,5-Dimethyl-1H-imidazol-2-yl)-5-[(3-pyridin-4-ylpyrrolidin-1-yl)carbonyl]-3,4′-bipyridine] yielded an IC50 [1] of at most 500 nM and an IC50 [2] of at most 500 nM.

For `Cc1[nH]c(-c2cc(-c3cncc(N4CCOCC4)c3)ccn2)nc1C(=O)N(C)C(C)C` [Example 259, N-Isopropyl-N,5-dimethyl-2-(5-morpholin-4-yl-3,4′-bipyridin-2′-yl)-1H-imidazole-4-carboxamide], the IC50 [1] was at most 500 nM and the IC50 [2] was at most 500 nM.

`Cc1nc(-c2cc(-c3cncc(NC(=O)OC(C)(C)C)c3)ccn2)[nH]c1C` [Example 128, tert-Butyl [2′-(4,5-dimethyl-1H-imidazol-2-yl)-3,4′-bipyridin-5-yl]carbamate] showed an IC50 [1] of at most 500 nM and an IC50 [2] of at most 500 nM.

`Cc1nc(-c2cc(-c3cncc(C(=O)N4CCC(O)(Cc5ccccc5)CC4)c3)ccn2)[nH]c1C` [Example 196, 4-Benzyl-1-{[2′-(4,5-dimethyl-1H-imidazol-2-yl)-3,4′-bipyridin-5-yl]carbonyl}piperidin-4-ol trifluoroacetate salt] showed an IC50 [1] of at most 500 nM and an IC50 [2] of at most 50 nM.

With `O=C(Nc1cncc(-c2ccnc(-c3ncc(-c4ccccc4)[nH]3)c2)c1)c1ccccc1` [Example 132, N-(2′-(5-Phenyl-1H-imidazol-2-yl)-3,4′-bipyridin-5-yl)benzamide] the IC50 [1] was at most 500 nM and the IC50 [2] was at most 500 nM.

`Cn1nc(C(F)(F)F)cc1-c1ccnc(-c2ncc(-c3ccccc3)[nH]2)c1` [Example 14, 4-(1-Methyl-3-(trifluoromethyl)-1H-pyrazol-5-yl)-2-(5-phenyl-1H-imidazol-2-yl)pyridine trifluoroacetate salt] was tested, and the IC50 [1] was over 500 nM and the IC50 [2] was over 500 nM.

Compound `Cc1nc(-c2cc(-c3cncc(C(=O)NCCCN(C)C)c3)ccn2)[nH]c1C` [Example 149, 2′-(4,5-Dimethyl-1H-imidazol-2-yl)-N-(3-(dimethylamino)propyl)-3,4′-bipyridine-5-carboxamide] has an IC50 [1] of at most 100 nM and an IC50 [2] of over 500 nM.

In the case of `COC(=O)c1cccc(Cn2cc(-c3ccnc(-c4ncc(-c5ccccc5)[nH]4)c3)cn2)c1` [Example 31, Methyl 3-((4-(2-(5-phenyl-1H-imidazol-2-yl)pyridin-4-yl)-1H-pyrazol-1-yl)methyl)benzoate trifluoroacetate salt], the IC50 [1] is reported as at most 500 nM and the IC50 [2] is reported as over 500 nM.

In the case of `CN1CCC(Nc2cncc(-c3ccnc(-c4ncc(-c5ccccc5)[nH]4)c3)c2)CC1` [Example 143, N-(1-Methylpiperidin-4-yl)-2′-(5-phenyl-1H-imidazol-2-yl)-3,4′-bipyridin-5-amine trifluoroacetate salt], the IC50 [1] is reported as at most 100 nM and the IC50 [2] is reported as at most 100 nM.

`Cc1nc(-c2cc(-c3cncc(C(=O)N4CC5(CCN(C)C5=O)C4)c3)ccn2)[nH]c1C` [Example 171, 2-(2′-(4,5-Dimethyl-1H-imidazol-2-yl)-3,4′-bipyridine-5-carbonyl)-6-methyl-2,6-diazaspiro[3.4]octan-5-one trifluoroacetate salt] was tested, and the IC50 [1] was at most 100 nM and the IC50 [2] was at most 100 nM.

In the case of `Cc1nc(-c2cc(-c3cncc(C(=O)N4CCC(c5ccccc5)C4)c3)ccn2)[nH]c1C` (racemic) [Example 181, 2′-(4,5-Dimethyl-1H-imidazol-2-yl)-5-[(3-phenylpyrrolidin-1-yl)carbonyl]-3,4′-bipyridine trifluoroacetate salt], the IC50 [1] is reported as at most 100 nM and the IC50 [2] is reported as at most 50 nM.

`NC(=O)CCn1cc(-c2ccnc(-c3ncc(-c4ccccc4)[nH]3)c2)cn1` [Example 53, 3-(4-(2-(5-Phenyl-1H-imidazol-2-yl)pyridin-4-yl)-1H-pyrazol-1-yl)propanamide] was tested, and the IC50 [1] was over 500 nM and the IC50 [2] was over 500 nM.

Compound `Cc1nc(-c2cc(-c3cncc(C(=O)NCC4CCCO4)c3)ccn2)[nH]c1C` (racemic) [Example 167, 2′-(4,5-Dimethyl-1H-imidazol-2-yl)-N-((tetrahydrofuran-2-yl)methyl)-3,4′-bipyridine-5-carboxamide trifluoroacetate salt] has an IC50 [1] of at most 100 nM and an IC50 [2] of at most 500 nM.

With `Cc1nc(-c2cc(-c3cncc(C(=O)NCCC4CCOCC4)c3)ccn2)[nH]c1C` [Example 164, 2′-(4,5-Dimethyl-1H-imidazol-2-yl)-N-(2-(tetrahydro-2H-pyran-4-yl)ethyl)-3,4′-bipyridine-5-carboxamide trifluoroacetate salt] the IC50 [1] was at most 500 nM and the IC50 [2] was at most 50 nM.

`Cc1[nH]c(-c2cc(-c3cncc(N4CCOCC4)c3)ccn2)nc1CN[C@H]1CCOC1` [Example 286, (3S)-N-{[5-Methyl-2-(5-morpholin-4-yl-3,4′-bipyridin-2′-yl)-1H-imidazol-4-yl]methyl}tetrahydrofuran-3-amine] showed an IC50 [1] of over 500 nM and an IC50 [2] of at most 500 nM.

In the case of `Cc1[nH]c(-c2cc(-c3cncc(N4CCOCC4)c3)ccn2)nc1CNC1CCCC1` [Example 284, N-{[5-Methyl-2-(5-morpholin-4-yl-3,4′-bipyridin-2′-yl)-1H-imidazol-4-yl]methyl}cyclopentanamine], the IC50 [1] is reported as over 500 nM and the IC50 [2] is reported as at most 100 nM.

In the case of `COc1cncc(-c2ccnc(-c3cnc(N)[nH]3)c2)c1` [Example 61, 5-(5-Methoxy-3,4′-bipyridin-2′-yl)-1H-imidazol-2-amine], the IC50 [1] is reported as over 500 nM and the IC50 [2] is reported as over 500 nM.

For `O=C(Nc1cncc(-c2ccnc(-c3ncc(-c4ccccc4)[nH]3)c2)c1)c1ccccc1Cl` [Example 133, 2-Chloro-N-(2′-(5-phenyl-1H-imidazol-2-yl)-3,4′-bipyridin-5-yl)benzamide], the IC50 [1] was at most 500 nM and the IC50 [2] was at most 100 nM.

`O=C(Nc1cncc(-c2ccnc(-c3ncc(-c4ccccc4)[nH]3)c2)c1)c1ccc(Cl)cc1` [Example 135, 4-Chloro-N-(2′-(5-phenyl-1H-imidazol-2-yl)-3,4′-bipyridin-5-yl)benzamide] showed an IC50 [1] of over 500 nM and an IC50 [2] of at most 500 nM.

`COC1CN(C(=O)c2nc(-c3cc(-c4cncc(N5CCOCC5)c4)ccn3)[nH]c2C)C1` [Example 263, 2′-{4-[(3-Methoxyazetidin-1-yl)carbonyl]-5-methyl-1H-imidazol-2-yl}-5-morpholin-4-yl-3,4′-bipyridine] showed an IC50 [1] of at most 100 nM and an IC50 [2] of at most 50 nM.

In the case of `Cc1[nH]c(-c2cc(-c3cncc(N4CCOCC4)c3)ccn2)nc1C(=O)O` [Example 257, 5-Methyl-2-(5-morpholin-4-yl-3,4′-bipyridin-2′-yl)-1H-imidazole-4-carboxylic Acid Trifluoroacetate Salt], the IC50 [1] is reported as at most 500 nM and the IC50 [2] is reported as over 500 nM.

`Clc1cccc(Cn2cc(-c3ccnc(-c4ncc(-c5ccccc5)[nH]4)c3)cn2)c1` [Example 21, 4-(1-(3-Chlorobenzyl)-1H-pyrazol-4-yl)-2-(5-phenyl-1H-imidazol-2-yl)pyridine trifluoroacetate salt] gave an IC50 [1] of at most 500 nM and an IC50 [2] of over 500 nM.
